Measured values as given in publication PMC7316778 (Nature Communications, 2020).
“And” between values parts separate entries of the source, which are not always exact repeats. Equal values may be shown once. Read-outs that look alike come from different tables or passages of the source.

How the values were obtained:
[1] = system: FES^S700C HL-60 neutrophils; assay: Neutrophil oxidative burst assay (NBT); type: cell-based, human
[2] = target: STK32C (YANK3) (Homo sapiens, UniProt Q86UX6); assay: SelectScreen kinase assay
Protocol: (§1) Selectivity profiling assays were performed by the Invitrogen SelectScreen™ Services. […] The concentration of ATP was selected to be equal to the KM, unless indicated otherwise.

[3] = target: RPS6KA5 (MSK1) (Homo sapiens, UniProt O75582); assay: SelectScreen kinase assay
Protocol: as §1

[4] = system: panel of 380 wild-type, mammalian kinases; assay: SelectScreen selectivity profiling, whole panel; type: biochemical
Protocol: Supplementary Figure 4. Single-point selectivity screen of WEL028 on a panel of 380 kinases. All data were obtained from SelectScreen™ selectivity profiling service. Assays were performed at 1 μM WEL028 with 1 h preincubation. The ATP concentration was equal to the kinase K M, except for those indicated († = LanthaScreen technology, no ATP; * = 100 µM ATP; ** = 10 µM ATP). Values represent mean percentage inhibition compared to vehicle -treated control (n = 2). […]
inhibition from minimum (0%, white) to maximum (100%, red). Source data are provided as a Source

[5] = target: MAP3K14 (NIK) (Homo sapiens, UniProt Q99558); assay: SelectScreen kinase assay
Sequence of MAP3K14 (NIK) (Q99558 whole entry): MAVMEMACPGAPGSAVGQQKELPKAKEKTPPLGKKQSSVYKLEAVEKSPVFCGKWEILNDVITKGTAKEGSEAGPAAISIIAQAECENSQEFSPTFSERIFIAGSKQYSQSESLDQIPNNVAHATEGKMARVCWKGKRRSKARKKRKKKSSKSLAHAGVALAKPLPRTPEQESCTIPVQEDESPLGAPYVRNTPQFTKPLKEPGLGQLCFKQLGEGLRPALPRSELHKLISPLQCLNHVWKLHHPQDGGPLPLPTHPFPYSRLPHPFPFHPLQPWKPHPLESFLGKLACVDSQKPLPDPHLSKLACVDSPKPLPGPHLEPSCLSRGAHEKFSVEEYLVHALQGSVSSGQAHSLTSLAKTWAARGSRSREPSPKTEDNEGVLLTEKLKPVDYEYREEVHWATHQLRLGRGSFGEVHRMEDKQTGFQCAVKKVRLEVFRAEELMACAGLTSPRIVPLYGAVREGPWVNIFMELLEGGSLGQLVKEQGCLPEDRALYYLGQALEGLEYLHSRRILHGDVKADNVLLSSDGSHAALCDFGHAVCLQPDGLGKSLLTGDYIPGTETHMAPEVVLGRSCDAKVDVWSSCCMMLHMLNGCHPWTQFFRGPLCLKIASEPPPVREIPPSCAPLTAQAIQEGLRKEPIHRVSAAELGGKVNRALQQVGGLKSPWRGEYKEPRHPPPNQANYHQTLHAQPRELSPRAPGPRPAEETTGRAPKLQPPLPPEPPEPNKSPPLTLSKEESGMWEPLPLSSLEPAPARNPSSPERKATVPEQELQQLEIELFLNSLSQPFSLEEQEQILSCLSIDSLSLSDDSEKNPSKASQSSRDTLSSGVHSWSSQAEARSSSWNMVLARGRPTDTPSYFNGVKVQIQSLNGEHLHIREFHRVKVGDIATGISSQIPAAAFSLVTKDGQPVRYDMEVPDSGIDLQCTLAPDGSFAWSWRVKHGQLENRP
Protocol: as §1

[6] = target: CDK16 (PCTK1)/cyclin Y (Homo sapiens, UniProt Q00536); assay: SelectScreen kinase assay
Protocol: as §1

[7] = target: GSK3A (GSK3 alpha) (Homo sapiens, UniProt P49840); assay: SelectScreen kinase assay
Sequence of GSK3A (GSK3 alpha) (P49840 whole entry): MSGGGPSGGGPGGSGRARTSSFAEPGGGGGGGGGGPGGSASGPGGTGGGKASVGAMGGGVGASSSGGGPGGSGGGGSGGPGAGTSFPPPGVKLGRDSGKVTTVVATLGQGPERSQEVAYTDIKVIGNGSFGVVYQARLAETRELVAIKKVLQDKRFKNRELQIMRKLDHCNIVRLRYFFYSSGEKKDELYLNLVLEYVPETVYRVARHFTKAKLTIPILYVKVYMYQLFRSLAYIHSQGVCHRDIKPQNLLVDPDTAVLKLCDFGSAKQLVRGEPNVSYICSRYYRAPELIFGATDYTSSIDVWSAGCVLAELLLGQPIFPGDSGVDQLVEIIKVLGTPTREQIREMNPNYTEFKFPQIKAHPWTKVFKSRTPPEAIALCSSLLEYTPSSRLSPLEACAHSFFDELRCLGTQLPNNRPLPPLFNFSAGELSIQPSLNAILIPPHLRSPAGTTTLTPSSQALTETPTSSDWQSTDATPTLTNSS
Protocol: as §1

[8] = target: MAP4K1 (HPK1) (Homo sapiens, UniProt Q92918); assay: SelectScreen kinase assay
Protocol: as §1

[9] = target: SGK2 (Homo sapiens, UniProt Q9HBY8); assay: SelectScreen kinase assay
Sequence of SGK2 (Q9HBY8 whole entry): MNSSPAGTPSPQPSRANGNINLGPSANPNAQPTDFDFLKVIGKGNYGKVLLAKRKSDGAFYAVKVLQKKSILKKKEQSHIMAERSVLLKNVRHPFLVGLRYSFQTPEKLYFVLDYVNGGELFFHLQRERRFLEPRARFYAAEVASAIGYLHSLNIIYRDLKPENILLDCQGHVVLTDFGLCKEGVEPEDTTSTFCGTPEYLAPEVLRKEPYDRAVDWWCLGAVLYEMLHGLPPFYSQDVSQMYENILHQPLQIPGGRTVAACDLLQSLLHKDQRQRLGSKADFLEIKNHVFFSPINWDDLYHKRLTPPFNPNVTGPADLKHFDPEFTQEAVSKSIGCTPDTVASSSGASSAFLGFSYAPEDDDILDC
Protocol: as §1

[10] = target: AXL (Homo sapiens, UniProt P30530); assay: SelectScreen kinase assay; conditions: for Inhibition at 1 µM (%): AXL, ZLYTE, ATP Km app
Sequence of AXL (P30530 26-894): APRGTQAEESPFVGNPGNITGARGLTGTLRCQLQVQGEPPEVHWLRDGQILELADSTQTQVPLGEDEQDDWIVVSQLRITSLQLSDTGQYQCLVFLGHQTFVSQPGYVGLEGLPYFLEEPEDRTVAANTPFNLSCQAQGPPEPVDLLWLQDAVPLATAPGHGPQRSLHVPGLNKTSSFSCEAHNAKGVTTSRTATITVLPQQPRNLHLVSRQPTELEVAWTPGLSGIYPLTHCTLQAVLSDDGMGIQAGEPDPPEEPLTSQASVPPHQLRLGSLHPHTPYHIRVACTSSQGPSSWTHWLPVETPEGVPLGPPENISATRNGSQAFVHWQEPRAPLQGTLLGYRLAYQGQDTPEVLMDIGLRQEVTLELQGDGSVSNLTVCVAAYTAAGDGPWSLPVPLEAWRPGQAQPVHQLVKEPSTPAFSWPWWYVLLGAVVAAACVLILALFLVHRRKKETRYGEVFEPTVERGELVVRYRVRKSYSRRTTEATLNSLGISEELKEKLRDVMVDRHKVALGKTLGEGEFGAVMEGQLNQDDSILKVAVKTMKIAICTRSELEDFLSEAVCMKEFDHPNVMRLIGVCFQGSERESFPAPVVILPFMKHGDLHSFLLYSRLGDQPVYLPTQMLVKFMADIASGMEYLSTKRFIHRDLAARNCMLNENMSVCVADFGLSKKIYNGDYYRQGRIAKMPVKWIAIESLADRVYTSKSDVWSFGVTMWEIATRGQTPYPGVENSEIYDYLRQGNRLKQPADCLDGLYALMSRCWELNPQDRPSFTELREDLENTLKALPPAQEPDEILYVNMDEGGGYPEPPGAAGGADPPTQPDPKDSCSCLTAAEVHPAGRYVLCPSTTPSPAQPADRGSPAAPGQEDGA
Protocol: as §1

[11] = target: PRKCG (PKC gamma) (Homo sapiens, UniProt P05129); assay: SelectScreen kinase assay; conditions: for Inhibition at 1 µM (%): PRKCG (PKC gamma), ZLYTE, ATP Km app
Protocol: as §1

[12] = target: RIPK3 (Homo sapiens, UniProt Q9Y572); assay: SelectScreen kinase assay
Protocol: as §1

[13] = target: PASK (Homo sapiens, UniProt Q96RG2); assay: SelectScreen kinase assay; conditions: for Inhibition at 1 µM (%): PASK, ZLYTE, ATP Km app
Sequence of PASK (Q96RG2 whole entry): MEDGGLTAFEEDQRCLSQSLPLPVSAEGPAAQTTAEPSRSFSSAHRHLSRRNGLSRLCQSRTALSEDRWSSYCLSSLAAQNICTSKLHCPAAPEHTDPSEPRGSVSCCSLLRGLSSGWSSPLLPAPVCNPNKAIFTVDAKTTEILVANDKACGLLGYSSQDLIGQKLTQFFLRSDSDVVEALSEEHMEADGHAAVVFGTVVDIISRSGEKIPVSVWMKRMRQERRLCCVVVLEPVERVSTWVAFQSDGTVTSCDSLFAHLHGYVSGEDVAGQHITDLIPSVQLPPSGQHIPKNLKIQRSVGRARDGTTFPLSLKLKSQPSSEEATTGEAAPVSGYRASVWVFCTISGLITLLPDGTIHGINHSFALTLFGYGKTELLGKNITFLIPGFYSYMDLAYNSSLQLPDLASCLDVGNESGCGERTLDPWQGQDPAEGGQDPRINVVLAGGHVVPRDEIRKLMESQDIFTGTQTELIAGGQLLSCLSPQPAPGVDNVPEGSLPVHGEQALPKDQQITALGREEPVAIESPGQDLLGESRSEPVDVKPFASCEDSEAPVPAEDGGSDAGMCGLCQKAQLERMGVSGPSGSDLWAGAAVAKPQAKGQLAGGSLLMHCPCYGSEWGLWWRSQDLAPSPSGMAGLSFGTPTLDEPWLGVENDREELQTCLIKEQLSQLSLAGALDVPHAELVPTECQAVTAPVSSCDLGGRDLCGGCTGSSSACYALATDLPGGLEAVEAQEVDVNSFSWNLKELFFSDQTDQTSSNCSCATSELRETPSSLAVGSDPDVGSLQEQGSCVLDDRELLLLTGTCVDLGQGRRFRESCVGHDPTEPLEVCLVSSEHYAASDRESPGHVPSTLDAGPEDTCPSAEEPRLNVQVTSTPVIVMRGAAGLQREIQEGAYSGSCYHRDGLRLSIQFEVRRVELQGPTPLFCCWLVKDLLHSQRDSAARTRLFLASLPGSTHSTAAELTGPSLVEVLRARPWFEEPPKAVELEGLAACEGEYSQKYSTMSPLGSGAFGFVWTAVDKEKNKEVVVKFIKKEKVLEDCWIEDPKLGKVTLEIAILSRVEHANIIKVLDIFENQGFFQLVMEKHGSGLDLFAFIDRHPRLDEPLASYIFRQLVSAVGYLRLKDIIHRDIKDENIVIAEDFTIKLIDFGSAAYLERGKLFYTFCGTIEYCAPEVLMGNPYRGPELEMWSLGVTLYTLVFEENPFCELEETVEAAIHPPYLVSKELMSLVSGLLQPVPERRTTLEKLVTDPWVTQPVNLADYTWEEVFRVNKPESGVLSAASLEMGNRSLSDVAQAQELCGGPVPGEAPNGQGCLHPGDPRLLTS
Protocol: as §1

[14] = target: T1, PKMYT1 (Homo sapiens, UniProt Q99640); assay: SelectScreen kinase assay
T1 sequence (Q99640 1-499): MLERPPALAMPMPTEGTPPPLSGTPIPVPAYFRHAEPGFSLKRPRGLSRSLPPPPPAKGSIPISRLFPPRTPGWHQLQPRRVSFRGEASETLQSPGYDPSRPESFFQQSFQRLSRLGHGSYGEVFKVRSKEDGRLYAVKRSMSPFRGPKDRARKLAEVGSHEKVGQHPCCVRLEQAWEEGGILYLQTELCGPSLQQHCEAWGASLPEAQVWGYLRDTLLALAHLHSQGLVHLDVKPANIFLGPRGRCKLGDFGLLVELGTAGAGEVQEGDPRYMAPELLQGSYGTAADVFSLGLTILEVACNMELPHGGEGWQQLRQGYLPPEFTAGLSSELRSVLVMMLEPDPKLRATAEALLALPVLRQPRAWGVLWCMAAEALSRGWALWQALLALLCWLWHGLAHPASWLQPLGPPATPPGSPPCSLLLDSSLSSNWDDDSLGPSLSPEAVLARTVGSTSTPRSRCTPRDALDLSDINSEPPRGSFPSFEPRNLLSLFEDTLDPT
Protocol: as §1

[15] = target: T2, TBK1 (Homo sapiens, UniProt Q9UHD2); assay: SelectScreen kinase assay
T2 sequence (Q9UHD2 1-729): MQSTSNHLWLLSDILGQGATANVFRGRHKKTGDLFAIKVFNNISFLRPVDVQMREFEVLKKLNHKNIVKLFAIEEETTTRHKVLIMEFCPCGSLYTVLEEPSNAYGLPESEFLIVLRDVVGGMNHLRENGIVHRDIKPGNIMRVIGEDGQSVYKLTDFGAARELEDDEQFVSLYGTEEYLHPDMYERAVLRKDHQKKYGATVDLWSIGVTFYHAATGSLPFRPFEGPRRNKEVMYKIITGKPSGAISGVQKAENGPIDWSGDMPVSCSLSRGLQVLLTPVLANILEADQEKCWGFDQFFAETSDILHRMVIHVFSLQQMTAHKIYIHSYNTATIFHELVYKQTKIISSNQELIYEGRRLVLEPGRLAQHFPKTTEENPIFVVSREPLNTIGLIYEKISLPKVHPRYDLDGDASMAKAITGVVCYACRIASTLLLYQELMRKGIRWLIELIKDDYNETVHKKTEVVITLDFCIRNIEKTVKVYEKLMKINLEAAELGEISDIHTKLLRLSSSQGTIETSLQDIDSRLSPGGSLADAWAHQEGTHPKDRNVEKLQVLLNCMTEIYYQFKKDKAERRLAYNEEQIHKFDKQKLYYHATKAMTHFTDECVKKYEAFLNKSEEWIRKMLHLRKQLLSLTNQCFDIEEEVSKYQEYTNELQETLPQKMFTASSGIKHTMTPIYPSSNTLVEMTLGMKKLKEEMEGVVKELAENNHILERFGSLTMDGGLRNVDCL
Protocol: as §1

[16] = 1 h, 1 μM WEL028, 1 h preincubation
[17] = 1 µM, ZLYTE, ATP Km app, listed as WEL028, 1 µM

## C#CCOc1ccc(Nc2ncc(Cl)c(Nc3ccccc3NC(=O)C=C)n2)c(OC)c1 [Compound 6]
[1]; 100 nM, Supplementary Figure 12f, individual replicates, listed as WEL028
  Formazan-positive cells (%): 79.976% and 78.7671% and 73.0614%
[1]; WEL028 prior to PMA stimulation
  Percentage of formazan-positive cells: did not affect
[2]; 1 h
  inhibition at 1 µM: 3%
[2]; read-out: Inhibition at 1 µM (%)
  inhibition at 1 µM: 3%
[3]; 1 µM, ZLYTE, ATP Km app
  Inhibition at 1 µM (%): -13%
[3]; [16]
  inhibition at 1 µM: -7%
[4]; 1 μM screen vs FES^S700C
  Selectivity window against the residual 354 kinases: > 100 fold
[4]; out of 380 tested kinases, 1 μM, 1 h preincubation
  Number of kinases with >50% inhibition: 26
[5]; [16]
  inhibition at 1 µM: 3%
[5]; MAP3K14 (NIK), 1 µM, LanthaScreen Binding, listed as WEL028, 1 µM
  Inhibition at 1 µM (%): 7% and -1%
[6]; [16]
  inhibition at 1 µM: 0%
[6]; CDK16 (PCTK1)/cyclin Y, 1 µM, LanthaScreen Binding, listed as WEL028, 1 µM
  Inhibition at 1 µM (%): -1%
[7]; [16]
  inhibition at 1 µM: 6%
[7]; GSK3A (GSK3 alpha), 1 µM, ZLYTE, ATP Km app, listed as WEL028, 1 µM
  Inhibition at 1 µM (%): 7%
[7]; read-out: Inhibition at 1 µM (%), GSK3A (GSK3 alpha), 1 µM, ZLYTE, ATP Km app
  inhibition at 1 µM: 5%
[8]; [16]
  inhibition at 1 µM: 17%
[8]; read-out: Inhibition at 1 µM (%), MAP4K1 (HPK1), 1 µM, LanthaScreen Binding
  inhibition at 1 µM: 16%
[9]; [17]
  Inhibition at 1 µM (%): 4% and -1%
[9]; [16]
  inhibition at 1 µM: 2%
[10]; [16]
  inhibition at 1 µM: -2%
[10]
  Inhibition at 1 µM (%): 3%
[10]; listed as WEL028, 1 µM
  Inhibition at 1 µM (%): -6%
[11]; [16]
  inhibition at 1 µM: 1%
[11]
  Inhibition at 1 µM (%): -3%
[11]; listed as WEL028, 1 µM
  Inhibition at 1 µM (%): 5%
[12]; [16]
  inhibition at 1 µM: 1%
[12]; read-out: Inhibition at 1 µM (%), 1 µM, LanthaScreen Binding
  inhibition at 1 µM: 2%
[13]; [16]
  inhibition at 1 µM: 2%
[13]
  Inhibition at 1 µM (%): -3%
[13]; listed as WEL028, 1 µM
  Inhibition at 1 µM (%): 7%
[14]; 1 μM WEL028, 1 h preincubation
  Inhibition (%): 13%
[14]; PKMYT1, 1 µM, LanthaScreen Binding, listed as WEL028, 1 µM
  Inhibition at 1 µM (%): 9%
[14]; read-out: Inhibition at 1 µM (%), PKMYT1, 1 µM, LanthaScreen Binding
  inhibition at 1 µM: 17%
[15]; [17]
  Inhibition at 1 µM (%): 6%
[15]; [16]
  inhibition at 1 µM: 7%
[15]; read-out: Inhibition at 1 µM (%), 1 µM, ZLYTE, ATP Km app
  inhibition at 1 µM: 8%
